Experimental data taken from ChEMBL document CHEMBL1131790, “Structure-based design and synthesis of novel thrombin inhibitors based on phosphinic peptide mimetics” (Bioorg Med Chem Lett, 1999).

Target: Prothrombin (Homo sapiens, UniProt P00734)
Assay: In vitro inhibitory activity against thrombin

| IC50 [µM] | SMILES |
| --- | --- |
| 70 | COc1ccc(C[C@@H](NC(=O)[C@@H](Cc2ccc3ccccc3c2)NC(=O)OCc2ccccc2)P(=O)(O)c2ccccc2)cc1 |
| 7.5 | CC(=O)N[C@H](Cc1c[nH]c2ccccc12)C(=O)N[C@H](Cc1ccc(C(=N)N)cc1)P(=O)(O)c1ccccc1 |
| 0.6 | N=C(N)c1ccc(C[C@@H](NC(=O)[C@H](N)Cc2ccc3ccccc3c2)P(=O)(O)c2ccccc2)cc1 |
| 3.6 | N=C(N)c1ccc(C[C@@H](NC(=O)[C@@H](Cc2ccc3ccccc3c2)NC(=O)OCc2ccccc2)P(=O)(O)c2ccccc2)cc1 |
